Patent US11446299B2, “Carbazole EHop-016 derivatives as anticancer and anti-migratory agents” (UNIVERSITY OF PUERTO RICO, priority 2017, dated 2022)

Experiments:
MCF-7 cancer cells = experiment: Sulforhodamine B (SRB) growth inhibition assay; assay type: cell-based; conditions: Homo sapiens, MCF7, 24 h treatment, mean of triplicate, SD <10%
Method: (§1) Various compounds were tested to evaluate the dose response curve for effect on MCF-7 cancer cells and MDA-MB-231 cancer cells. MCF-7 and MDA-MB-231 cells were cultured in 10% Minimum Essential Medium Eagle (MEME) supplemented with Earle's Balanced Salt Solution (EBSS), Non-essential Amino acids (NEAA), Sodium pyruvate, Pen/Strep, L-glutamine and Fetal Bovine Serum (FBS) at 37° C. in 5% CO2.
(§2) Sulforhodamine B (SRB) Assay: A stock solution of compounds was prepared at 50 mM in 100% DMSO. For cells preparation, a flask of 75 cm^2 or 25 cm^2 were used for 2.6×10^5 cells or 1.44×10^5 cells respectively with an 80-90% of confluence. Cells were washed with PBS and trypsinized. The concentration of cells was determined using a 1:2 dilutions with Trypan Blue and a hemocytometer. After cell count, the concentration was adjusted to have a 1.9×10^4 cells/well. Approximately […] of cells suspension, compounds, control positive and control negative were added in triplicates to a 96 well plate. Positive controls used were ellipticine, doxorubicin, and/or vincristine, and the negative control was DMSO 0.1%. All compounds at 50, 25, 12.5, 6.3, and 1.6 μM were incubated with cells at 37° C. for 24 hrs. For fixation, cold TCA 50% was used and incubated at 4° C. for 1 hr. Wells were washed and dried prior to tincture with 100 μL of SRB 0.4%. To remove excess of SRB, acetic acid was used. For analysis, TRIS-BASE Solution (pH=10.5) was used and shacked prior to reading using an ELISA reader at 510 nm and the software SoftMax Pro 4.8.
(§3) For each compound, 50% growth inhibition (GI50) was calculated from Sigmoidal dose-response curves (variable-slope) that were generated with data obtained from experiments carried out in triplicates (GI50 values were generated with GraphPad Prism V. 6.02, GraphPad Software, Inc.). The results are presented in FIGS. 4A-4B (MCF-7 cancer cells) and FIGS. 5A-5B (MDA-MB-231 cancer cells).

MDA-MB-231 cancer cells = experiment: Sulforhodamine B (SRB) growth inhibition assay; assay type: cell-based, human
Method: as §1, §2, §3

GFP-MDA-MB-231 cells = experiment: Mammary tumor growth and metastasis in immunocompromised mice; assay type: in vivo; conditions: 1 mg/kg BW i.p., Monday to Friday, approximately 2 months
Method: FIG. 18 (A-D). Effect of HV-118 on mammary tumor growth. Severe combined immune deficiency (SCID) mice were inoculated at the mammary fat pad with GFP-MDA-MB-231 cells and treated with 0 (Vehicle) or 1 mg/kg BW HV-118 (5× a wk). FIG. 18A. Upper panel, representative images and lower panel, average relative tumor growth on last day. FIG. 18B. Relative tumor growth as a function of days following HV-118 administration. Lungs and livers were removed at necropsy and imaged for fluorescent metastatic foci. FIG. 18C. Representative organs under fluorescence microscopy for 0 (Vehicle) and 1 mg/kg BW HV-118 treatment. FIG. 18D. […]
Preliminary data supporting HV-118 as a potent inhibitor of Rac activation in breast cancer cells was confirmed. […] Tumor growth and metastasis were assessed by fluorescent imaging. HV-118 toxicity was also determined.
An in vivo study was performed to assess HV-118 toxicity and test its effects in mammary tumor growth and metastasis. […] The effects of HV-118 on tumor growth were monitored weekly by in situ fluorescence image analysis (starting from day 1 of treatment). Mammary tumor growth was quantified using Image J software, as the pixel intensity (integrated density) determined from digital tracing of the fluorescent tumor area at each imaging session and calculated as a function of the fluorescence intensity on day one of treatment. […]

| Structure (SMILES) | GI50 (MCF-7 cancer cells) [µM] | GI50 (MDA-MB-231 cancer cells; Homo sapiens, MDA-MB-231, SRB assay, 24 h treatment, mean of triplicate, SD <10%) [µM] | anti-proliferative activity / cytotoxicity in words (MDA-MB-231 cancer cells; MDA-MB-231, concentrations ≤50 μM) | reduction in metastasis to lung and liver (GFP-MDA-MB-231 cells) [%] | reduction in tumor growth (GFP-MDA-MB-231 cells) [%] |
| --- | --- | --- | --- | --- | --- |
| CCn1c2ccccc2c2cc(C(=O)Nc3cccnc3N3CCOCC3)ccc21 [Compound 11b, 9-Ethyl-9H-carbazole-3-carboxylic Acid (2-morpholin-4-yl-pyridin-3-yl)-amide] | > 50 | > 50 | minimal cytotoxicity |  |  |
| CCn1c2ccccc2c2cc(Nc3cc(C)nc(Cl)n3)ccc21 [HV-118, (2-Chloro-6-methyl-pyrimidin-4-yl)-(9-ethyl-9H-carbazol-3-yl)-amine] |  |  |  | > 90 | 30 |
